From patent US9409905B2, “Antibacterial compounds and methods for use” (PTC THERAPEUTICS, INC., priority 2011, dated 2016)
≈ marks a conversion by molar mass, not a printed value.

Assays:
[1] = system: E. coli 25922; experiment: Antibacterial activity, microbroth dilution MIC (Table 1); type: cell-based, Escherichia coli; conditions: Escherichia coli; microbroth dilution; control Gram-negative E. coli 25922 strain; read-out: MIC, 25922
How it was run: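 Broth microdilution; endpoint = no macroscopic growth; value = lowest inhibiting concn, μg/mL.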

[2] = system: E. coli LZ3111; experiment: Antibacterial activity, MIC, quinolone resistant strain (Table 2); type: cell-based; conditions: Escherichia coli, LZ3111, read-out: MIC LZ3111
How it was run: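 Microbroth dilution method; MIC (μg/mL) is the lowest drug concentration preventing macroscopically visible growth under test conditions.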

[3] = system: Staphylococcus aureus (S. aureus) 29213; experiment: Antibacterial activity, microbroth dilution MIC (Table 1); type: cell-based; conditions: microbroth dilution, Gram-positive S. aureus 29213, read-out: MIC, 29213
How it was run: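 Values are MICs (μg/mL): the smallest drug amount at which macroscopically visible bacterial growth is absent under assay conditions, from a microdilution method in broth.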

[4] = system: Escherichia coli (E. coli) BAS849; experiment: as above; type: cell-based; conditions: microbroth dilution, super sensitive Gram-negative E. coli BAS849, read-out: MIC, BAS849
How it was run: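 Each strain is exposed to test compound in a microbroth dilution series; visible growth is scored macroscopically, and the lowest growth-free concentration is recorded as MIC in μg/mL.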

SMILES: CCc1c(-c2ccc3c(c2)cc(CN2CCC(c4ccncc4)C2)n3C)[nH]c(=O)c(C(=O)O)c1O (stereo not drawn) [Cpd 268, 5-ethyl-4-hydroxy-6-(1-methyl-2-((3-(pyridin-4-yl)pyrrolidin-1-yl)methyl)-1H-indol-5-yl)-2-oxo-1,2-dihydropyridine-3-carboxylic acid]
- MIC [1]: 3.5 to 12.5 µg/mL (≈ 7.41 to 26.5 µM)
- MIC [2]: 12.5 to 150 µg/mL (≈ 26.5 to 317 µM)
- MIC [3]: 3.5 to 12.5 µg/mL (≈ 7.41 to 26.5 µM)
- MIC [4]: < 1 µg/mL

SMILES: CN(C)Cc1cc2cc(-c3[nH]c(=O)c(C(=O)O)c(O)c3-c3ccc(F)cc3)ccc2n1C [Cpd 310, 6-(2-((dimethylamino)methyl)-1-methyl-1H-indol-5-yl)-5-(4-fluorophenyl)-4-hydroxy-2-oxo-1,2-dihydropyridine-3-carboxylic acid]
- MIC [1]: 3.5 to 12.5 µg/mL (≈ 8.04 to 28.7 µM)
- MIC [2]: 12.5 to 150 µg/mL (≈ 28.7 to 344 µM)
- MIC [3]: 12.5 to 150 µg/mL (≈ 28.7 to 344 µM)
- MIC [4]: < 1 µg/mL

SMILES: CCc1c(-c2ccc3c(c2)cc(CN2CCN(C(C)C)CC2)n3C)[nH]c(=O)c(C(=O)O)c1O [Cpd 174, 5-ethyl-4-hydroxy-6-(2-((4-isopropylpiperazin-1-yl)methyl)-1-methyl-1H-indol-5-yl)-2-oxo-1,2-dihydropyridine-3-carboxylic acid]
- MIC [1]: 1 to 3.5 µg/mL (≈ 2.21 to 7.73 µM)
- MIC [2]: 12.5 to 150 µg/mL (≈ 27.6 to 331 µM)
- MIC [3]: 3.5 to 12.5 µg/mL (≈ 7.73 to 27.6 µM)
- MIC [4]: < 1 µg/mL

SMILES: CCc1cc(C(=O)O)c(=O)[nH]c1-c1ccc2nccnc2c1 [Cpd 57, 5-ethyl-2-oxo-6-(quinoxalin-6-yl)-1,2-dihydropyridine-3-carboxylic acid]
- MIC [1]: 12.5 to 150 µg/mL (≈ 42.3 to 508 µM)
- MIC [2]: 12.5 to 150 µg/mL (≈ 42.3 to 508 µM)
- MIC [3]: 12.5 to 150 µg/mL (≈ 42.3 to 508 µM)
- MIC [4]: 12.5 to 150 µg/mL (≈ 42.3 to 508 µM)

SMILES: CCc1cc(C(=O)O)c(=O)[nH]c1-c1ccc2c(c1)cc(CCN)n2C.Cl [Cpd 163, 6-(2-(2-aminoethyl)-1-methyl-1H-indol-5-yl)-5-ethyl-2-oxo-1,2-dihydropyridine-3-carboxylic acid hydrochloride]
- MIC [1]: 12.5 to 150 µg/mL
- MIC [2]: 12.5 to 150 µg/mL
- MIC [3]: 12.5 to 150 µg/mL
- MIC [4]: < 1 µg/mL

SMILES: CCc1c(-c2ccc3c(c2)cc(CNCc2ccccc2F)n3C)[nH]c(=O)c(C(=O)O)c1O [Cpd 299, 5-ethyl-6-(2-((2-fluorobenzylamino)methyl)-1-methyl-1H-indol-5-yl)-4-hydroxy-2-oxo-1,2-dihydropyridine-3-carboxylic acid]
- MIC [1]: 1 to 3.5 µg/mL (≈ 2.22 to 7.79 µM)
- MIC [2]: 12.5 to 150 µg/mL (≈ 27.8 to 334 µM)
- MIC [3]: 1 to 3.5 µg/mL (≈ 2.22 to 7.79 µM)
- MIC [4]: < 1 µg/mL

SMILES: CCc1c(-c2ccc3c(c2)cc(CN2CCN(C(C)=O)CC2)n3C)[nH]c(=O)c(C(=O)O)c1O [Cpd 175, 6-(2-((4-acetylpiperazin-1-yl)methyl)-1-methyl-1H-indol-5-yl)-5-ethyl-4-hydroxy-2-oxo-1,2-dihydropyridine-3-carboxylic acid]
- MIC [1]: 3.5 to 12.5 µg/mL (≈ 7.73 to 27.6 µM)
- MIC [2]: 12.5 to 150 µg/mL (≈ 27.6 to 331 µM)
- MIC [3]: 1 to 3.5 µg/mL (≈ 2.21 to 7.73 µM)
- MIC [4]: < 1 µg/mL

SMILES: CC(C)c1c(-c2ccc3c(c2)cc(CN2CCCC2)n3C)[nH]c(=O)c(C(=O)O)c1O [Cpd 319, 4-hydroxy-5-isopropyl-6-(1-methyl-2-(pyrrolidin-1-ylmethyl)-1H-indol-5-yl)-2-oxo-1,2-dihydropyridine-3-carboxylic acid]
- MIC [1]: 1 to 3.5 µg/mL (≈ 2.44 to 8.55 µM)
- MIC [2]: 12.5 to 150 µg/mL (≈ 30.5 to 366 µM)
- MIC [3]: 3.5 to 12.5 µg/mL (≈ 8.55 to 30.5 µM)
- MIC [4]: < 1 µg/mL

SMILES: CCc1c(-c2ccc3c(c2)cc(CN2CC(N(C)CCN(C)C)C2)n3C)[nH]c(=O)c(C(=O)O)c1O [Cpd 207, 6-(2-((3-((2-(dimethylamino)ethyl)(methyl)amino)azetidin-1-yl)methyl)-1-methyl-1H-indol-5-yl)-5-ethyl-4-hydroxy-2-oxo-1,2-dihydropyridine-3-carboxylic acid]
- MIC [1]: 12.5 to 150 µg/mL (≈ 26 to 311 µM)
- MIC [2]: 12.5 to 150 µg/mL (≈ 26 to 311 µM)
- MIC [3]: 12.5 to 150 µg/mL (≈ 26 to 311 µM)
- MIC [4]: 1 to 3.5 µg/mL (≈ 2.08 to 7.27 µM)

SMILES: CCc1cc(C(=O)O)c(=O)[nH]c1-c1ccc2c(c1)cc1n2CCC1N1CCC(N(C)C)C1 (stereo not drawn) [Cpd 153, 6-(1-(3-(dimethylamino)pyrrolidin-1-yl)-2,3-dihydro-1H-pyrrolo[1,2-a]indol-7-yl)-5-ethyl-2-oxo-1,2-dihydropyridine-3-carboxylic acid]
- MIC [1]: 3.5 to 12.5 µg/mL (≈ 8.05 to 28.8 µM)
- MIC [2]: 12.5 to 150 µg/mL (≈ 28.8 to 345 µM)
- MIC [3]: 12.5 to 150 µg/mL (≈ 28.8 to 345 µM)
- MIC [4]: < 1 µg/mL

SMILES: CCc1c(-c2ccc3c(c2)cc(CNCc2cccc(C)c2)n3C)[nH]c(=O)c(C(=O)O)c1O [Cpd 294, 5-ethyl-4-hydroxy-6-(1-methyl-2-((3-methylbenzylamino)methyl)-1H-indol-5-yl)-2-oxo-1,2-dihydropyridine-3-carboxylic acid]
- MIC [1]: < 1 µg/mL
- MIC [2]: 12.5 to 150 µg/mL (≈ 28.1 to 337 µM)
- MIC [3]: 1 to 3.5 µg/mL (≈ 2.24 to 7.86 µM)
- MIC [4]: < 1 µg/mL

SMILES: CCc1cc(C(=O)O)c(=O)[nH]c1-c1ccc2c(c1)cc(CN1C[C@@H]3[C@H](C1)[C@H]3N(Cc1ccccc1)Cc1ccccc1)n2C [Cpd 143, 6-(2-(((1R,5S,6s)-6-(dibenzylamino)-3-azabicyclo[3.1.0]hexan-3-yl)methyl)-1-methyl-1H-indol-5-yl)-5-ethyl-2-oxo-1,2-dihydropyridine-3-carboxylic acid]
- MIC [1]: 12.5 to 150 µg/mL (≈ 21.3 to 256 µM)
- MIC [2]: 12.5 to 150 µg/mL (≈ 21.3 to 256 µM)
- MIC [3]: 3.5 to 12.5 µg/mL (≈ 5.97 to 21.3 µM)
- MIC [4]: < 1 µg/mL
